# Assays:
# HCT116 xenograft tumors [1] = assay: HCT116 CDX model; assay type: in vivo, BALB/c nude mice; details: 20 or 30 mg/kg intraperitoneally every other day for 16 days
# Procedure: (§1) All animal studies were performed following federal and institutional guidelines approved by the Institutional Animal Care and Use Committee at Shanghai Jiao-Tong University School of Medicine. To establish the CDXs, HCT116 cells (1 × 10^6) suspended in 100 μL of 1× PBS were injected subcutaneously into the flanks of six-week-old male BALB/c nude mice. To establish the PDXs, primary tumors resected from two independent CRC patients (patient #1 and #2) were collected in the culture medium. The necrotic and supporting tissues were carefully removed using sterilized surgical blades. The gross tumor was cut into fragments (2-3 mm in diameter) and inoculated subcutaneously into the flanks of nude mice. The mice were monitored daily, and caliper measurements began when tumors became visible. The tumor volume was monitored every other day via calipers. The tumor volume was calculated using the following formula: (L × W ^2) / 2, where L and W refer to the tumor diameter along the longitudinal and transverse axes, respectively. When the mean tumor volume was approximately 100 to 250 mm^3, the mice were randomly grouped (n = 6 per group for CDXs, n = 8 per group for PDXs), and treatment was initiated. […] After treatment or if meeting the humane endpoint criteria, the mice were sacrificed by CO2 asphyxiation. The tumors were dissected, imaged, and weighed. […]
# [2] = Body weights and behaviour of xenograft models; assay type: in vivo; details: CDX and PDX mice at the efficacy dosage
# Procedure: as §1
# [3] = test system: HCT116, HT29, and LOVO cells; assay: Combination drug treatment, CCK-8, Chou-Talalay combination index; assay type: cell-based, human; details: MDL-811 (5 to 10 μM) plus 1,25(OH)2D3 (1 to 10 μM), 48 h, three CRC cell lines; CI < 1 = synergism
# Procedure: 1,25(OH)2D3 was purchased from TargetMol. For cell proliferation assays, 1,25(OH)2D3 was dissolved in DMSO, stored at -20 °C and protected from light. The maximum final DMSO concentration used in all treatment conditions was 0.25%. […] Then, cell proliferation assays were performed using the CCK-8 method. Combination effects were analyzed by the Chou-Talalay combination index (CI) method. The CI values and the fraction of cells affected values were generated using CompuSyn Version 1.0 software. CI values of < 1, = 1, and > 1 indicate synergism, additivity, and antagonism between the drugs, respectively.
# HCT116 xenograft tumors [4] = assay: Combination treatment in the HCT116 CDX model; assay type: in vivo, BALB/c nude mice; details: 15 mg/kg MDL-811 plus 50 μg/kg 1,25(OH)2D3 intraperitoneally every other day for 14 days, vs vehicle or single drug
# CYP24A1 = assay: RT-qPCR of CYP24A1 mRNA in CRC cells; assay type: cell-based, human
# Procedure: Total RNA was extracted with TRIzol reagent (Invitrogen) according to the manufacturer's instructions. For cDNA synthesis, 1 μg of total RNA was reverse transcribed using a FastKing RT Kit (Tiangen). RT-qPCRs were run in triplicate using SYBR Green master mix (Roche) in an ABI 7900 Thermal Cycler (Applied Biosystems) according to the manufacturer's instructions. RT-qPCRs were performed in triplicate, and the mean cycle threshold (Ct) values were calculated for expression analysis. The mRNA levels of target genes were calculated using the 2^-ΔΔCt method. The expression data were normalized to β-actin expression levels and are presented as the mean ± s.e.m. of three independent experiments.
# SIRT6 [5] = target: T1, SIRT6 (Homo sapiens, UniProt Q8N6T7); assay: Histone deacetylase enzyme selectivity assay; assay type: biochemical; parameters: endogenous in cells; host or cells: HEK293T; details: SIRT6, selectivity panel
# T1 sequence (Q8N6T7 whole entry): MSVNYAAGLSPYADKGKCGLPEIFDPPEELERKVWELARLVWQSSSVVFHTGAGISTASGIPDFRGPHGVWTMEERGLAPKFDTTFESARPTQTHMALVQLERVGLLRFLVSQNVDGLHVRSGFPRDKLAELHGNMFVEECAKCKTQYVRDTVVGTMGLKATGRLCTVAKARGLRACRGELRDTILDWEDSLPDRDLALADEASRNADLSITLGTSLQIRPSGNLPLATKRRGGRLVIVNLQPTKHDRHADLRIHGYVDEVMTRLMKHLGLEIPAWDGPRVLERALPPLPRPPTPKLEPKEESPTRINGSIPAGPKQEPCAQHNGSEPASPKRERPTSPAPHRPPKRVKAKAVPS
# Procedure: Then, the reaction was initiated by adding the fluorogenic HDAC acetylated substrate (also adding NAD^+ in the deacetylase assays of sirtuins) at the indicated concentrations at room temperature or 37 °C for the indicated durations. After incubation, the reaction was stopped with an equal volume of buffer containing 1 mL of HDAC developer (peptidase activity, BPS Bioscience); 20 µM trichostatin was also included for the termination in the deacetylase assays of HDAC1-11. After the indicated time, fluorescence intensity was measured using a microplate reader (Envision, Perkin Elmer) at excitation and emission wavelengths of 355 nm and 460 nm, respectively. We also developed deacetylase assays for SIRT5 and SIRT7, which were not available at CEREP. For SIRT5 deacetylation assay, HEK293T cells were transiently transfected with empty vector or pcDNA3.1-SIRT5-HA (10 μg/10 cm plate) using Neofect™ DNA transfection reagent. 48 h after transfection, cells were lysed in ice-cold NP-40 buffer (50 mM Tris-HCl [pH 8.0], 150 mM NaCl, 1% NP-40, and protease inhibitor cocktail) with rotation at 4 °C for 30 min. A particle-free supernatant solution was obtained by centrifugation at 13,600 × g for 15 min at 4 °C. […] The data points at various concentrations were expressed as percent inhibition or activation effects of the control activity. […]
# SIRT6 [6] = target: T1, SIRT6; assay: SIRT6 deacetylation on nucleosome substrates (western blot); assay type: biochemical; parameters: WT (wild-type) full-length human SIRT6 was inserted into the pET28a-LIC vector; made in house; host or cells: Escherichia coli BL21 (DE3); details: natural nucleosomes, dose-dependent
# Procedure: In vitro deacetylation reactions on nucleosome substrates were performed as previously reported, [32]. Briefly, 5 μg of mononucleosomes purified from HeLa cells with a nucleosome preparation kit (Active Motif) and 0.2 μg of purified WT SIRT6 were incubated in 40 μL of HDAC buffer (50 mM Tris-HCl [pH 8.0], 2 mM NAD^+, and 150 mM NaCl) for 80 min at 30 °C. […] The reaction mixture was analyzed by western blotting.
compound,measurement,setting,value
Cc1cc(F)c(Br)cc1NS(=O)(=O)c1ccc(NS(=O)(=O)c2cc(Cl)cc(Cl)c2)cc1CN1CCOC[C@H]1C [MDL-811],tumor growth,HCT116 xenograft tumors [1],strongly suppressed tumor growth in a dose-dependent manner
same,weight loss and behavioral signs,[2],did not observe any significant weight loss or other abnormal behavioral signs
same,CI values (Chou-Talalay),[3],< 1
same,"tumor growth, cotreatment",HCT116 xenograft tumors [4],dramatically enhanced tumor growth regression
same,"1,25(OH)2D3-enhanced CYP24A1 transcription, cotreatment","CYP24A1; HCT116 and HT29 cells, MDL-811 (5 µM) plus 1,25(OH)2D3 (5 µM), 48 h",effectively abolished
same,CYP24A1 mRNA expression levels,"CYP24A1; HCT116 cells, 10 µM MDL-811, 48 h",markedly decreased CYP24A1 mRNA expression levels
same,Effect,SIRT6 [5],Activation
same,"deacetylation of H3K9Ac, H3K18Ac, and H3K56Ac",SIRT6 [6],"significantly enhanced the deacetylation of SIRT6 (H3K9Ac, H3K18Ac, and H3K56Ac)"

# Source: article PMC7255010, “Small-molecule activating SIRT6 elicits therapeutic effects and synergistically promotes anti-tumor activity of vitamin D3 in colorectal cancer” (Theranostics, 2020)
